Data on 26 compounds can be found in patent US20150191462A1, “PYRROLIDINE DERIVATIVES AND THEIR USE AS COMPLEMENT PATHWAY MODULATORS” (priority 2012, published 2015).

The target in the assay is Recombinant human factor D (Homo sapiens, UniProt P00746). The assay can be described thus: Human Complement Factor D Assay: Method 1. It is filed as biochemical. As to conditions: Factor D inhibition, 10 nM factor D, Z-Lys-thiobenzyl substrate, fluorescence readout. The method, then:
Human Complement Factor D Assay: Method 1 Recombinant human factor D (expressed in E. coli and purified using standard methods) at 10 nM concentration is incubated with test compound at various concentrations for 1 hour at room temperature in 0.1 M Hepes buffer, pH 7.5, containing 1 mM MgCl2, 1 M NaCl and 0.05% CHAPS. […] The increase in fluorescence is recorded at excitation of 485 nm and emission at 535 nm in a microplate spectrofluorimeter. IC50 values are calculated from percentage of inhibition of complement factor D-activity as a function of test compound concentration.

Recombinant human factor D, sequence (P00746 26-253): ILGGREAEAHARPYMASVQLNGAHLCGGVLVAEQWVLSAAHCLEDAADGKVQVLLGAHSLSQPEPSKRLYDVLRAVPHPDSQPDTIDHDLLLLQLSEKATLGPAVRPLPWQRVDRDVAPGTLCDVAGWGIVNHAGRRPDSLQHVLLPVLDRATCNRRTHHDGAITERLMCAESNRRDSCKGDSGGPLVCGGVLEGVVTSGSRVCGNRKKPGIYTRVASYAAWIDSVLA

Turning to `NC(=O)c1nn(CC(=O)N2[C@@H]3C[C@@H]3C[C@H]2C(=O)Nc2cncc(Br)n2)c2ncccc12` [Example 1, 1-{2-[(1R,3S,5R)-3-(6-Bromo-pyrazin-2-ylcarbamoyl)-2-aza-bicyclo[3.1.0]hex-2-yl]-2-oxo-ethyl}-1H-pyrazolo[3,4-b]pyridine-3-carboxylic acid amide], the half-maximal inhibitory concentration (IC50) (commonly the concentration that gives 50% inhibition) is 19 nM.
As for `CCc1cc2c(C(N)=O)nn(CC(=O)N3[C@@H]4C[C@@H]4C[C@H]3C(=O)Nc3cccc(C(F)(F)F)n3)c2cn1` [Example 2, 5-Ethyl-1-{2-oxo-2-[(1R,3S,5R)-3-(6-trifluoromethyl-pyridin-2-ylcarbamoyl)-2-aza-bicyclo[3.1.0]hex-2-yl]-ethyl}-1H-pyrazolo[3,4-c]pyridine-3-carboxylic acid amide], the IC50 stood at 18 nM.
Consider `NC(=O)c1nn(CC(=O)N2[C@@H]3C[C@@H]3C[C@H]2C(=O)Nc2cccc(Br)n2)c2nnccc12` [Example 3, 1-{2-[(1R,3S,5R)-3-(6-Bromo-pyridin-2-ylcarbamoyl)-2-aza-bicyclo[3.1.0]hex-2-yl]-2-oxo-ethyl}-1H-pyrazolo[3,4-c]pyridazine-3-carboxylic acid amide], for which the IC50 worked out at 24 nM.
`NC(=O)c1nn(CC(=O)N2[C@@H]3C[C@@H]3C[C@H]2C(=O)Nc2cccc(Br)n2)c2cnc(C3CC3)cc12` [Example 5, 1-{2-[(1R,3S,5R)-3-(6-Bromo-pyridin-2-ylcarbamoyl)-2-aza-bicyclo[3.1.0]hex-2-yl]-2-oxo-ethyl}-5-cyclopropyl-1H-pyrazolo[3,4-c]pyridine-3-carboxylic acid amide]: the half-inhibitory concentration (IC50) worked out at 4 nM.
As for `CC(=O)c1nn(CC(=O)N2[C@@H]3C[C@@H]3C[C@H]2C(=O)Nc2cccc(OC(F)F)n2)c2ccc(OCc3ncccn3)cc12` [Example 6, (1R,3S,5R)-2-{2-[3-Acetyl-5-(pyrimidin-2-ylmethoxy)-indazol-1-yl]-acetyl}-2-aza-bicyclo[3.1.0]hexane-3-carboxylic acid (6-difluoromethoxy-pyridin-2-yl)-amide], the IC50 was found to be 38 nM.
The figure for `Cc1ncc(NC(=O)[C@@H]2C[C@H]3C[C@H]3N2C(=O)Cn2nc(C(N)=O)c3ccccc32)nc1Br` [Example 7, 1-{2-[(1R,3S,5R)-3-(6-Bromo-5-methyl-pyrazin-2-ylcarbamoyl)-2-aza-bicyclo[3.1.0]hex-2-yl]-2-oxo-ethyl}-1H-indazole-3-carboxylic acid amide] is 6 nM; for `Cc1ccc2c(C(N)=O)nn(CC(=O)N3[C@@H]4C[C@@H]4C[C@H]3C(=O)Nc3cccc(Br)n3)c2c1` [Example 8, 1-{2-[(1R,3S,5R)-3-(6-Bromo-pyridin-2-ylcarbamoyl)-2-aza-bicyclo[3.1.0]hex-2-yl]-2-oxo-ethyl}-6-methyl-1H-indazole-3-carboxylic acid amide] it is 5 nM; for `NC(=O)c1nn(CC(=O)N2[C@@H]3C[C@@H]3C[C@H]2C(=O)Nc2cncc(C(F)(F)F)n2)c2ccccc12` [Example 9, 1-{2-Oxo-2-[(1R,3S,5R)-3-(6-trifluoromethyl-pyrazin-2-ylcarbamoyl)-2-aza-bicyclo[3.1.0]hex-2-yl]ethyl}-1H-indazole-3-carboxylic acid amide] it is 32 nM.
On to `NC(=O)c1nn(CC(=O)N2[C@@H]3C[C@@H]3C[C@H]2C(=O)Nc2cccc(Br)n2)c2ccncc12` [Example 10, 1-{2-[(1R,3S,5R)-3-(6-Bromo-pyridin-2-ylcarbamoyl)-2-aza-bicyclo[3.1.0]hex-2-yl]-2-oxo-ethyl}-1H-pyrazolo[4,3-c]pyridine-3-carboxylic acid amide], for which the 50% inhibitory concentration (IC50) stood at 9 nM.
Consider `NC(=O)c1nn(CC(=O)N2[C@@H]3C[C@@H]3C[C@H]2C(=O)Nc2cccc(Br)n2)c2cc(F)ccc12` [Example 11, 1-{2-[(1R,3S,5R)-3-(6-Bromo-pyridin-2-ylcarbamoyl)-2-aza-bicyclo[3.1.0]hex-2-yl]-2-oxo-ethyl}-6-fluoro-1H-indazole-3-carboxylic acid amide], for which the IC50 was 5 nM.
For `CC(=O)c1nn(CC(=O)N2[C@@H]3C[C@@H]3C[C@H]2C(=O)Nc2cnc(C)c(Br)n2)c2cnccc12` [Example 12, (1R,3S,5R)-2-[2-(3-Acetyl-pyrazolo[3,4-c]pyridin-1-yl)-acetyl]-2-aza-bicyclo[3.1.0]hexane-3-carboxylic acid (6-bromo-5-methyl-pyrazin-2-yl)-amide] the value was 16 nM.
As for `CC(=O)c1nn(CC(=O)N2C[C@H](F)C[C@H]2C(=O)Nc2cccc(Br)n2)c2cnccc12` [Example 13, (2S,4R)-1-[2-(3-Acetyl-pyrazolo[3,4-c]pyridin-1-yl)-acetyl]-4-fluoro-pyrrolidine-2-carboxylic acid (6-bromo-pyridin-2-yl)-amide], the half-inhibitory concentration (IC50) amounted to 9 nM.
The figure for `CC(=O)c1nn(CC(=O)N2[C@@H]3C[C@@H]3C[C@H]2C(=O)Nc2cncc(Br)n2)c2cnccc12` [Example 14, (1R,3S,5R)-2-[2-(3-Acetyl-pyrazolo[3,4-c]pyridin-1-yl)-acetyl]-2-aza-bicyclo[3.1.0]hexane-3-carboxylic acid (6-bromo-pyrazin-2-yl)-amide] is 11 nM; for `CC(=O)c1nn(CC(=O)N2C[C@H]3C[C@H]3[C@H]2C(=O)Nc2cccc(Br)n2)c2cnccc12` [Example 15, (1R,2S,5S)-3-[2-(3-Acetyl-pyrazolo[3,4-c]pyridin-1-yl)-acetyl]-3-aza-bicyclo[3.1.0]hexane-2-carboxylic acid (6-bromo-pyridin-2-yl)-amide] it is 14 nM.
For `CC(=O)c1nn(CC(=O)N2[C@@H]3C[C@@H]3C[C@H]2C(=O)Nc2cncc(C(F)(F)F)n2)c2ccccc12` [Example 16, (1R,3S,5R)-2-[2-(3-Acetyl-indazol-1-yl)-acetyl]-2-aza-bicyclo[3.1.0]hexane-3-carboxylic acid (6-trifluoromethyl-pyrazin-2-yl)-amide], the IC50 stood at 17 nM.
Regarding `CC(=O)c1nn(CC(=O)N2[C@@H]3C[C@@H]3C[C@H]2C(=O)Nc2cncc(C(F)(F)F)n2)c2cnccc12` [Example 17, (1R,3S,5R)-2-[2-(3-Acetyl-pyrazolo[3,4-c]pyridin-1-yl)-acetyl]-2-aza-bicyclo[3.1.0]hexane-3-carboxylic acid (6-trifluoromethyl-pyrazin-2-yl)-amide], the IC50 is 64 nM.
With `CO[C@H]1[C@@H](C(=O)Nc2cccc(Br)n2)N(C(=O)Cn2nc(C(C)=O)c3ccncc32)C[C@@H]1F` [Example 18, (2S,3S,4S)-1-[2-(3-Acetyl-pyrazolo[3,4-c]pyridin-1-yl)-acetyl]-4-fluoro-3-methoxy-pyrrolidine-2-carboxylic acid (6-bromo-pyridin-2-yl)-amide], the IC50 was 7 nM.
Consider `C[C@@]1(F)C[C@@H](C(=O)Nc2cccc(Br)n2)N(C(=O)Cn2nc(C(N)=O)c3ccccc32)C1` [Example 19, 1-{2-[(2S,4R)-2-(6-Bromo-pyridin-2-ylcarbamoyl)-4-fluoro-4-methyl-pyrrolidin-1-yl]-2-oxo-ethyl}-1H-indazole-3-carboxylic acid amide], for which the IC50 was found to be 11 nM.
The figure for `NC(=O)c1nn(CC(=O)N2[C@@H]3C[C@@H]3C[C@H]2C(=O)Nc2cccc(Cl)n2)c2ccccc12` [Example 20, 1{2-[(1R,3S,5R)-3-(6-Chloro-pyridin-2-ylcarbamoyl)-2-aza-bicyclo[3.1.0]hex-2-yl]-2-oxo-ethyl}-1H-indazole-3-carboxylic acid amide] is 4 nM; for `NC(=O)c1nn(CC(=O)N2[C@@H]3C[C@@H]3C[C@H]2C(=O)Nc2cccc(I)n2)c2ccccc12` [Example 21, 1-{2-[(1R,3S,5R)-3-(6-Iodo-pyridin-2-ylcarbamoyl)-2-aza-bicyclo[3.1.0]hex-2-yl]-2-oxo-ethyl}-1H-indazole-3-carboxylic acid amide] it is 3 nM; for `COc1cc(Br)nc(NC(=O)[C@@H]2C[C@H]3C[C@H]3N2C(=O)Cn2nc(C(N)=O)c3ccccc32)c1` [Example 22, 1-{2-[(1R,3S,5R)-3-(6-Bromo-4-methoxy-pyridin-2-ylcarbamoyl)-2-aza-bicyclo[3.1.0]hex-2-yl]-2-oxo-ethyl}-1H-indazole-3-carboxylic acid amide] it is 5 nM.
Consider `NC(=O)c1nn(CC(=O)N2C[C@H](F)[C@H](F)[C@H]2C(=O)Nc2cccc(Br)n2)c2ccccc12` [Example 23, 1-{2-[(2R,3R,4S)-2-(6-Bromo-pyridin-2-ylcarbamoyl)-3,4-difluoro-pyrrolidin-1-yl]-2-oxo-ethyl}-1H-indazole-3-carboxylic acid amide], for which the IC50 turned out to be 8 nM.
For `NC(=O)c1nn(CC(=O)N2C[C@H](F)C[C@H]2C(=O)Nc2cccc(Br)n2)c2cnc(CF)cc12` [Example 24, 1-(2-((2S,4R)-2-(6-bromopyridin-2-ylcarbamoyl)-4-fluoropyrrolidin-1-yl)-2-oxoethyl)-5-(fluoromethyl)-1H-pyrazolo[3,4-c]pyridine-3-carboxamide] the value was 7 nM; for `NC(=O)c1nn(CC(=O)N2CCS[C@H]2C(=O)Nc2cccc(Br)n2)c2ccccc12` [Example 25, (S)-N-(6-bromopyridin-2-yl)-3-(2-(3-carbamoyl-1H-indazol-1-yl)acetyl)thiazolidine-2-carboxamide], 10 nM.
`CNC(=O)c1nn(CC(=O)N2[C@@H]3C[C@@H]3C[C@H]2C(=O)Nc2cccc(Br)n2)c2ccccc12` [Example 26, 1-(2-((1R,3S,5R)-3-((6-bromopyridin-2-yl)carbamoyl)-2-azabicyclo[3.1.0]hexan-2-yl)-2-oxoethyl)-N-methyl-1H-indazole-3-carboxamide]: the 50% inhibitory concentration (IC50) turned out to be 40 nM.
With `NC(=O)c1nn(CC(=O)N2CC[C@H](F)[C@H]2C(=O)Nc2cccc(Br)n2)c2ccccc12` [Example 27, 1-(2-((2R,3S)-2-((6-bromopyridin-2-yl)carbamoyl)-3-fluoropyrrolidin-1-yl)-2-oxoethyl)-1H-indazole-3-carboxamide], the IC50 was 80 nM.
